In PubChem BioAssay AID248 (DTP/NCI, 2004) one finds T/C data, which are given here for 17 compounds.

The test relates to L1210 leukemia ip in BDF1 mice, survival T/C. Kind of test: NCI In Vivo Anticancer Drug Screen. Data for tumor model L1210 Leukemia (intraperitoneal) in B6D2F1 (BDF1) mice. As to conditions: endpoint: mean survival time, higher = longer survival. In a few lines:
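Mice bearing the transplanted tumor received compound or vehicle. Survival of the treated group was divided by that of the vehicle-treated control group to give the ratio.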

The mark [1] stands for this setting: dose: 100.0 mg/kg/injection, schedule: Q01DX009 (ip), vehicle: saline with Tween-80.
Where [2] appears, read: dose: 200.0 mg/kg/injection, schedule: Q01DX009 (ip), vehicle: saline with Tween-80.
The mark [3] stands for this setting: dose: 400.0 mg/kg/injection, schedule: Q01DX009 (ip), vehicle: saline with Tween-80.
[4] abbreviates: dose: 12.5 mg/kg/injection, schedule: Q04DX003 (ip), vehicle: saline.
Where [5] appears, read: dose: 50.0 mg/kg/injection, schedule: Q01DX009 (ip), vehicle: saline with Tween-80.
The mark [6] stands for this setting: dose: 100.0 mg/kg/injection, schedule: Q04DX003 (ip), vehicle: saline with Tween-80.
[7] abbreviates: dose: 200.0 mg/kg/injection, schedule: Q04DX003 (ip), vehicle: saline with Tween-80.
Where [8] appears, read: dose: 400.0 mg/kg/injection, schedule: Q04DX003 (ip), vehicle: saline with Tween-80.
The mark [9] stands for this setting: dose: 200.0 mg/kg/injection, schedule: Q01DX009 (ip), vehicle: other.
Setting [10] is: dose: 100.0 mg/kg/injection, schedule: Q01DX001 (ip), vehicle: other.
[11] abbreviates: dose: 200.0 mg/kg/injection, schedule: Q01DX001 (ip), vehicle: other.
Setting [12] is: dose: 400.0 mg/kg/injection, schedule: Q01DX001 (ip), vehicle: other.

“And” between values parts separate entries of the source, which are not always exact repeats. Equal entries are not always repeated. Toxic doses and inconclusive results are not listed.

Take `N#CC(C#N)N=Nc1ccc(S(=O)(=O)Nc2ccccn2)cc1`: the T/C is 95 % of control (dose: 75.0 mg/kg/injection, schedule: Q01DX001 (ip), vehicle: saline) and 90 % of control (dose: 150.0 mg/kg/injection, schedule: Q01DX001 (ip), vehicle: saline).

Consider `CCOC(=O)c1c(C)cc(O)cc1O`, for which the T/C under setting [1] was 114 % of control, the T/C under setting [2] is 106 % of control and the T/C under setting [3] was 102 % of control.

With `CCn1cnc2c(C(F)(F)F)nc(N)nc21`, the T/C is, setting by setting: (dose: 12.5 mg/kg/injection, schedule: Q01DX001 (ip), vehicle: acetone) 94 % of control; (dose: 12.5 mg/kg/injection, schedule: Q01DX009 (ip), vehicle: saline with Tween-80) 96 % of control; under setting [4], 103 % of control; (dose: 25.0 mg/kg/injection, schedule: Q01DX001 (ip), vehicle: acetone) 94 % of control; (dose: 25.0 mg/kg/injection, schedule: Q01DX009 (ip), vehicle: saline with Tween-80) 101 % of control; (dose: 25.0 mg/kg/injection, schedule: Q04DX003 (ip), vehicle: saline) 87 % of control. Besides, the T/C is, setting by setting: (dose: 50.0 mg/kg/injection, schedule: Q01DX001 (ip), vehicle: acetone) 101 % of control; under setting [5], 95 % of control; (dose: 50.0 mg/kg/injection, schedule: Q04DX003 (ip), vehicle: saline) 97 % of control.

`Cc1ccc(S(=O)(=O)Oc2ccc(N(CC(=O)O)S(=O)(=O)c3ccc(C)cc3)cc2)cc1`: the T/C was 98 % of control (dose: 100.0 mg/kg/injection, schedule: Q01DX001 (ip), vehicle: water); 94 % of control (dose: 100.0 mg/kg/injection, schedule: Q04DX003 (ip), vehicle: water); 96 % of control (dose: 200.0 mg/kg/injection, schedule: Q01DX001 (ip), vehicle: water); 88 % of control (dose: 200.0 mg/kg/injection, schedule: Q04DX003 (ip), vehicle: water); 97 % of control (dose: 400.0 mg/kg/injection, schedule: Q01DX001 (ip), vehicle: water); 96 % of control (dose: 400.0 mg/kg/injection, schedule: Q04DX003 (ip), vehicle: water).

With `OC(c1cc(C(F)(F)F)nc2c(F)cccc12)C1CCCCN1` (centres undefined), the T/C is, setting by setting: under setting [6], 102 % of control; under setting [7], 105 % of control; under setting [8], 96 % of control.

With `CC/C=N\N=C(N)N`, the T/C is 101 % of control (dose: 15.0 mg/kg/injection, schedule: Q01DX Z (ip), vehicle: saline); 106 % of control (dose: 30.0 mg/kg/injection, schedule: Q01DX Z (ip), vehicle: saline); 100 % of control (dose: 60.0 mg/kg/injection, schedule: Q01DX Z (ip), vehicle: saline); 94 % of control (dose: 120.0 mg/kg/injection, schedule: Q01DX010 (oral), vehicle: saline); 100 % of control (dose: 120.0 mg/kg/injection, schedule: Q01DX Z (ip), vehicle: saline); 98 % of control (dose: 240.0 mg/kg/injection, schedule: Q01DX010 (oral), vehicle: saline). Besides, the T/C (dose: 240.0 mg/kg/injection, schedule: Q01DX Z (ip), vehicle: saline) was 95 % of control.

As to `NNC(=O)c1ccc(S(N)(=O)=O)cc1`, the T/C reads like this: (dose: 12.5 mg/kg/injection, schedule: Q01DX009 (ip), vehicle: water) 93 % of control; (dose: 25.0 mg/kg/injection, schedule: Q01DX009 (ip), vehicle: water) 96 % of control; (dose: 50.0 mg/kg/injection, schedule: Q01DX009 (ip), vehicle: water) 343 % of control; (dose: 59.0 mg/kg/injection, schedule: Q01DX009 (ip), vehicle: other) 93 % of control and 103 % of control; (dose: 89.0 mg/kg/injection, schedule: Q01DX009 (ip), vehicle: other) 97 % of control and 92 % of control; (dose: 100.0 mg/kg/injection, schedule: Q01DX009 (ip), vehicle: water) 403 % of control. For the same compound, the T/C by setting is: (dose: 133.0 mg/kg/injection, schedule: Q01DX009 (ip), vehicle: other) 101 % of control and 87 % of control; under setting [9], 99 % of control and 90 % of control; (dose: 200.0 mg/kg/injection, schedule: Q01DX009 (ip), vehicle: water) 459 % of control; (dose: 300.0 mg/kg/injection, schedule: Q01DX009 (ip), vehicle: other) 94 % of control and 99 % of control.

For the compound `COCC1=CC(=O)CCC1CC1OC1(C)C` (centres undefined), the T/C is 96 % of control under setting [5], 96 % of control under setting [1] and 96 % of control under setting [2].

In the case of `Cc1ccc(NC(=O)OCCSCCOC(=O)Nc2ccc(C)cc2)cc1`, the T/C by setting is: (dose: 100.0 mg/kg/injection, schedule: Q01DX009 (ip), vehicle: other) 89 % of control; under setting [9], 89 % of control; (dose: 400.0 mg/kg/injection, schedule: Q01DX009 (ip), vehicle: other) 97 % of control.

Turning to `O=C(OCCC/C(=C\c1cc2ccccc2c2ccccc12)[N+](=O)[O-])c1ccccc1`, the T/C is 87 % of control under setting [10], 92 % of control under setting [11] and 91 % of control under setting [12].

Consider `CCc1occ(C(=O)N2Cc3cc4ccccc4nc3C2)c1C1SCCS1`, for which the T/C runs as follows: (dose: 100.0 mg/kg/injection, schedule: Q01DX001 (ip), vehicle: saline) 89 % of control; (dose: 200.0 mg/kg/injection, schedule: Q01DX001 (ip), vehicle: saline) 92 % of control.

Consider `CCCCCCCCCCCC[N+](CCO)(CCO)Cc1ccccc1`, for which the T/C was 96 % of control (dose: 3.12 mg/kg/injection, schedule: Q01DX009 (ip), vehicle: saline); 98 % of control (dose: 6.25 mg/kg/injection, schedule: Q01DX009 (ip), vehicle: saline); 88 % of control under setting [4].

As for `CC1CN1P(=O)(OCCC#N)N1CC1C` (centres undefined), the T/C (dose: 50.0 mg/kg/injection, schedule: Q01DX009 (ip), vehicle: saline) is 99 % of control and 111 % of control; the T/C (dose: 100.0 mg/kg/injection, schedule: Q01DX009 (ip), vehicle: saline) is 110 % of control and 113 % of control; the T/C (dose: 132.0 mg/kg/injection, schedule: Q04DX003 (ip), vehicle: acetone) was 109 % of control; the T/C (dose: 200.0 mg/kg/injection, schedule: Q01DX009 (ip), vehicle: saline) was 108 % of control; the T/C (dose: 400.0 mg/kg/injection, schedule: Q01DX009 (ip), vehicle: saline) was 96 % of control.

Consider `C[N+]1(CCNC2=CC(=O)C(NCC[N+]3(C)CCOCC3)=CC2=O)CCOCC1`, for which the T/C reads like this: (dose: 5.0 mg/kg/injection, schedule: Q01DX001 (ip), vehicle: saline) 103 % of control; (dose: 10.0 mg/kg/injection, schedule: Q01DX001 (ip), vehicle: saline) 101 % of control; (dose: 20.0 mg/kg/injection, schedule: Q01DX001 (ip), vehicle: saline) 101 % of control; (dose: 40.0 mg/kg/injection, schedule: Q01DX001 (ip), vehicle: saline) 101 % of control; (dose: 80.0 mg/kg/injection, schedule: Q01DX001 (ip), vehicle: saline) 97 % of control.

Consider `CC1(C)CCS1(=O)=O`, for which the T/C by setting is: (dose: 100.0 mg/kg/injection, schedule: Q04DX002 (ip), vehicle: saline) 100 % of control; (dose: 200.0 mg/kg/injection, schedule: Q04DX002 (ip), vehicle: saline) 100 % of control; (dose: 400.0 mg/kg/injection, schedule: Q04DX002 (ip), vehicle: saline) 100 % of control.

Take `O/N=C1/CCCC/C1=C/c1ccccc1Cl`: the T/C is 92 % of control under setting [6], 100 % of control under setting [7] and 100 % of control under setting [8].

Take `O=C(NO)N/N=C/c1ccc(/C=N/NC(=O)NO)cc1`: the T/C is, setting by setting: under setting [10], 100 % of control; under setting [1], 101 % of control; (dose: 100.0 mg/kg/injection, schedule: Q04DX003 (ip), vehicle: other) 104 % of control; under setting [11], 100 % of control; under setting [2], 95 % of control; (dose: 200.0 mg/kg/injection, schedule: Q04DX003 (ip), vehicle: other) 95 % of control. For the same compound, the T/C is, setting by setting: under setting [12], 102 % of control; under setting [3], 101 % of control; (dose: 400.0 mg/kg/injection, schedule: Q04DX003 (ip), vehicle: other) 96 % of control.
